In brackets after ≈: the same amount, converted by molar mass.

The test system of test [1] is Candida albicans. The test is described as follows: Antifungal activity against Candida albicans ATCC SC5314 assessed as fungal growth inhibition by CLSI protocol based method. Type of test: functional.
The subject of test [2] is Candida albicans. The test is described as follows: Antifungal activity against Candida albicans CPCC400616 assessed as fungal growth inhibition by CLSI protocol based method. Type of test: functional.
In another test the test system is Candida tropicalis. The test is described as follows: Antifungal activity against Candida tropicalis CGMCC 2.3739 assessed as fungal growth inhibition by CLSI protocol based method. It counts as functional.
For another test, the system named is Cryptococcus neoformans. The test is described as follows: Antifungal activity against Cryptococcus neoformans CGMCC2.3161 assessed as fungal growth inhibition by CLSI protocol based method. It counts as functional.
For another test, the system named is Candida parapsilosis. The test is described as follows: Antifungal activity against Candida parapsilosis GIM2.190 assessed as fungal growth inhibition by CLSI protocol based method. It counts as functional. To be noted: Lodderomyces parapsilosis.
The subject of another test is Nakaseomyces glabratus. The test is described as follows: Antifungal activity against Candida glabrata assessed as fungal growth inhibition by CLSI protocol based method. It counts as functional.
In the next test the test system is Pichia kudriavzevii. The test is described as follows: Antifungal activity against Candida krusei GIM2.1 assessed as fungal growth inhibition by CLSI protocol based method. It counts as functional.
For test [3], the system named is Candida albicans. The test is described as follows: Antifungal activity against fluconazole-resistant Candida albicans 901 assessed as fungal growth inhibition by CLSI protocol based method.
Test [4] concerns Candida albicans. The test is described as follows: Antifungal activity against fluconazole-resistant Candida albicans 904 assessed as fungal growth inhibition by CLSI protocol based method.
In test [5] the test system is Candida albicans. The test is described as follows: Antifungal activity against fluconazole-resistant Candida albicans 632 assessed as fungal growth inhibition by CLSI protocol based method.
Test [6] has as its system Candida albicans. The test is described as follows: Antifungal activity against fluconazole-resistant Candida albicans 100 assessed as fungal growth inhibition by CLSI protocol based method.
Test [7] deals with Candida albicans. The test is described as follows: Antifungal activity against fluconazole-resistant Candida albicans 103 assessed as fungal growth inhibition by CLSI protocol based method.
Test [8] deals with Candida albicans. The test is described as follows: Antifungal activity against fluconazole-resistant Candida albicans 311 assessed as fungal growth inhibition by CLSI protocol based method.

By MIC is commonly meant the lowest concentration that inhibits growth of the organism. For `O=C(NC(Cn1ccnc1)C(=O)c1ccccc1)c1ccc(-c2ccc(C(F)(F)F)cc2)s1` (stereo not given), the MIC in the test with Candida albicans [1] is 0.125 µg/mL (≈ 0.266 µM); in the test with Candida albicans [2], 2 µg/mL (≈ 4.26 µM); with Candida tropicalis it was 0.125 µg/mL (≈ 0.266 µM); with Cryptococcus neoformans, over 64 µg/mL; in the test with Candida parapsilosis it was 4 µg/mL (≈ 8.52 µM); in the test on Nakaseomyces glabratus, 8 µg/mL (≈ 17 µM). In addition, the minimal inhibitory concentration (MIC) with Pichia kudriavzevii is 16 µg/mL (≈ 34.1 µM); with Candida albicans [3], 4 µg/mL (≈ 8.52 µM); with Candida albicans [4], 2 µg/mL (≈ 4.26 µM); in the test on Candida albicans [5] it was over 64 µg/mL; with Candida albicans [6] it was over 64 µg/mL; in the test with Candida albicans [7], 2 µg/mL (≈ 4.26 µM). Further, in the test with Candida albicans [8], the minimum inhibitory concentration (MIC) is 4 µg/mL (≈ 8.52 µM).

As for `O=C(NC(Cn1ccnc1)C(=O)c1ccccc1)c1ccc2ccccc2c1` (stereo not given), the MIC in the test on Candida albicans [1] was 0.5 µg/mL (≈ 1.35 µM); in the test with Candida albicans [2] it was 2 µg/mL (≈ 5.41 µM); with Candida tropicalis it was 0.5 µg/mL (≈ 1.35 µM); in the test with Cryptococcus neoformans, 32 µg/mL (≈ 86.6 µM); in the test with Candida parapsilosis it was over 64 µg/mL; in the test on Nakaseomyces glabratus, over 64 µg/mL. The MIC in the test with Pichia kudriavzevii was over 64 µg/mL.

In the case of `O=C(NC(Cn1ccnc1)C(=O)c1cccc(Cl)c1)c1ccc(-c2ccc(Cl)cc2)s1` (stereo not given), the MIC was under 0.03 µg/mL with Candida albicans [1]; 0.25 µg/mL (≈ 0.531 µM) in the test with Candida albicans [2]; 1 µg/mL (≈ 2.13 µM) in the test on Candida tropicalis; over 64 µg/mL in the test with Cryptococcus neoformans; 0.5 µg/mL (≈ 1.06 µM) in the test with Candida parapsilosis; 0.5 µg/mL (≈ 1.06 µM) in the test on Nakaseomyces glabratus. The MIC was over 64 µg/mL in the test on Pichia kudriavzevii; 8 µg/mL (≈ 17 µM) in the test on Candida albicans [3]; over 64 µg/mL in the test on Candida albicans [4]; over 64 µg/mL in the test with Candida albicans [5]; 2 µg/mL (≈ 4.25 µM) in the test on Candida albicans [6]; 4 µg/mL (≈ 8.5 µM) in the test with Candida albicans [7]. For the same molecule, in the test with Candida albicans [8], the MIC was 4 µg/mL (≈ 8.5 µM).

Regarding `O=C(NC(Cn1ccnc1)C(=O)c1ccccc1)c1noc2c1CCc1ccccc1-2` (stereo not given), the MIC was 8 µg/mL (≈ 19.4 µM) in the test on Candida albicans [1]; 8 µg/mL (≈ 19.4 µM) in the test on Candida albicans [2]; 4 µg/mL (≈ 9.7 µM) with Candida tropicalis; 16 µg/mL (≈ 38.8 µM) with Cryptococcus neoformans; 32 µg/mL (≈ 77.6 µM) in the test with Candida parapsilosis; 16 µg/mL (≈ 38.8 µM) with Nakaseomyces glabratus. The MIC in the test on Pichia kudriavzevii was over 64 µg/mL.

`O=C(NC(Cn1ccnc1)C(=O)c1ccccc1)c1ccc(-c2ccc(F)cc2)s1` (stereo not given): the minimal inhibitory concentration (MIC) with Candida albicans [1] was 1 µg/mL (≈ 2.38 µM); with Candida albicans [2], 32 µg/mL (≈ 76.3 µM); with Candida tropicalis, 32 µg/mL (≈ 76.3 µM); in the test with Cryptococcus neoformans, over 64 µg/mL; in the test on Candida parapsilosis, over 64 µg/mL; in the test with Nakaseomyces glabratus, over 64 µg/mL. Further, the MIC in the test with Pichia kudriavzevii is over 64 µg/mL.

Consider `O=C(NC(Cn1ccnc1)C(=O)c1ccccc1)c1nc2ccc(Br)cc2s1` (stereo not given), for which the minimal inhibitory concentration (MIC) in the test on Candida albicans [1] is 32 µg/mL (≈ 70.3 µM); in the test on Candida albicans [2] it was over 64 µg/mL; in the test on Candida tropicalis, over 64 µg/mL; with Cryptococcus neoformans, over 64 µg/mL; in the test with Candida parapsilosis, over 64 µg/mL; with Nakaseomyces glabratus, over 64 µg/mL. In addition, in the test on Pichia kudriavzevii, the MIC was over 64 µg/mL.

In the case of `O=C(NC(Cn1ccnc1)C(=O)c1ccccc1)c1cc2ccccc2o1` (stereo not given), the MIC with Candida albicans [1], with Candida albicans [2], in the test on Candida tropicalis, with Cryptococcus neoformans, in the test on Candida parapsilosis and in the test on Nakaseomyces glabratus was over 64 µg/mL in each case. Also, the minimal inhibitory concentration (MIC) in the test with Pichia kudriavzevii is over 64 µg/mL.

`N#Cc1ccc(-c2ccc(C(=O)NC(Cn3ccnc3)C(=O)c3ccccc3)s2)cc1` (stereo not given): the minimum inhibitory concentration (MIC) in the test on Candida albicans [1], in the test with Candida albicans [2], in the test on Candida tropicalis, in the test on Cryptococcus neoformans, in the test with Candida parapsilosis and in the test on Nakaseomyces glabratus was over 64 µg/mL throughout. The MIC with Pichia kudriavzevii is over 64 µg/mL.

Take `O=C(NC(Cn1ccnc1)C(=O)c1ccccc1)c1ccc(-c2cccc(F)c2)s1` (stereo not given): the MIC is 8 µg/mL (≈ 19.1 µM) in the test with Candida albicans [1]; 64 µg/mL (≈ 153 µM) in the test with Candida albicans [2]; over 64 µg/mL with Candida tropicalis; over 64 µg/mL in the test on Cryptococcus neoformans; over 64 µg/mL in the test with Candida parapsilosis; over 64 µg/mL in the test on Nakaseomyces glabratus. The MIC in the test with Pichia kudriavzevii is over 64 µg/mL.

(Values after ChEMBL document CHEMBL4828738, “Design, synthesis and evaluation of novel 5-phenylthiophene derivatives as potent fungicidal of Candida albicans and antifungal reagents of fluconazole-resistant fungi” (Eur J Med Chem, 2021).)
